This is an account of results in patent US5064954A, “Process for producing halomethylcarbapenems” (Shionogi & Co., Ltd., priority 1990, dated 1991).

The structures appear in SMILES notation. In brackets after ≈: the same amount, converted by molar mass.

What all share (format): cell-based
The subject of assay [1] is S. aureus Smith. The assay is described as follows: MIC against S. aureus Smith. The note with it: Staphylococcus aureus; Table I; S = S. aureus Smith; inoculum size = 10^5 /ml. An excerpt: |MIC: μg/ml (inoculum size = 10^5 /ml) |S = S. aureus Smith
Assay [2] deals with E. coli EC-14. The assay is described as follows: MIC against E. coli EC-14. To be noted: Escherichia coli, EC14; Table I; E = E. coli EC-14; inoculum size = 10^5 /ml. The source says:
|MIC: μg/ml (inoculum size = 10^5 /ml) |E = E. coli EC-14

In assay [3] the test system is Ps. aeruginosa SR-24. The assay is described as follows: MIC against Ps. aeruginosa SR-24. The note with it: Pseudomonas aeruginosa, SR24; Table I; P = Ps. aeruginosa SR-24; inoculum size = 10^5 /ml. An excerpt: |MIC: μg/ml (inoculum size = 10^5 /ml) |P = Ps. aeruginosa SR-24

For the compound `CC(O)[C@H]1C(=O)N2C(C(=O)[O-])=C(C[n+]3ccsc3)[C@H](C)[C@H]12` (stereo partly drawn) [Table I No. 1], the minimal inhibitory concentration (MIC) (as a rule, the lowest concentration that inhibits growth of the organism) in assay [1] was 0.025 µg/mL (≈ 0.0811 µM); in assay [2], 0.1 µg/mL (≈ 0.324 µM); in assay [3] it was 3.13 µg/mL (≈ 10.2 µM).
The matching figures for `CC(O)[C@H]1C(=O)N2C(C(=O)[O-])=C(C[n+]3ccsc3N)[C@H](C)[C@H]12` (stereo partly drawn) [Table I No. 2]: 0.0125 µg/mL (≈ 0.0387 µM), 0.78 µg/mL (≈ 2.41 µM) and 6.25 µg/mL (≈ 19.3 µM).
As for `CC(O)[C@H]1C(=O)N2C(C(=O)[O-])=C(C[n+]3ccccc3)[C@H](C)[C@H]12` (stereo partly drawn) [Table I No. 3, 1β-methyl-2-pyridiniomethyl-6α-(1-hydroxyethyl)-1-carba-2-penem-4-carboxylate], the figures for the MIC in assay [1], in assay [2] and in assay [3] were 0.0125 µg/mL (≈ 0.0413 µM), 0.1 µg/mL (≈ 0.331 µM) and 1.56 µg/mL (≈ 5.16 µM), respectively.
For `Cc1cccc[n+]1CC1=C(C(=O)[O-])N2C(=O)[C@H](C(C)O)[C@H]2[C@H]1C` (stereo partly drawn) [Table I No. 4], the minimum inhibitory concentration (MIC) in assay [1] came to 0.025 µg/mL (≈ 0.079 µM); in assay [2], 0.2 µg/mL (≈ 0.632 µM); in assay [3] it was 3.13 µg/mL (≈ 9.89 µM).
For `Cc1ccc[n+](CC2=C(C(=O)[O-])N3C(=O)[C@H](C(C)O)[C@H]3[C@H]2C)c1` (stereo partly drawn) [Table I No. 5] the same measures were 0.025 µg/mL (≈ 0.079 µM), 0.2 µg/mL (≈ 0.632 µM) and 1.56 µg/mL (≈ 4.93 µM).
The matching figures for `Cc1cc[n+](CC2=C(C(=O)[O-])N3C(=O)[C@H](C(C)O)[C@H]3[C@H]2C)cc1` (stereo partly drawn) [Table I No. 6]: 0.025 µg/mL (≈ 0.079 µM), 0.39 µg/mL (≈ 1.23 µM) and 3.13 µg/mL (≈ 9.89 µM).
The matching figures for `CCc1cc[n+](CC2=C(C(=O)[O-])N3C(=O)[C@H](C(C)O)[C@H]3[C@H]2C)cc1` (stereo partly drawn) [Table I No. 7]: 0.025 µg/mL (≈ 0.0757 µM), 0.39 µg/mL (≈ 1.18 µM) and 3.13 µg/mL (≈ 9.47 µM).
For the compound `CC(O)[C@H]1C(=O)N2C(C(=O)[O-])=C(C[n+]3cccc4c3CCC4)[C@H](C)[C@H]12` (stereo partly drawn) [Table I No. 8], the values for the MIC in assay [1], in assay [2] and in assay [3] were 0.025 µg/mL (≈ 0.073 µM), 0.2 µg/mL (≈ 0.584 µM) and 6.25 µg/mL (≈ 18.3 µM), respectively.
The matching figures for `CC(O)[C@H]1C(=O)N2C(C(=O)[O-])=C(C[n+]3cccc(CN)c3)[C@H](C)[C@H]12` (stereo partly drawn) [Table I No. 9]: 0.05 µg/mL (≈ 0.151 µM), 0.78 µg/mL (≈ 2.35 µM) and 3.13 µg/mL (≈ 9.45 µM).
For `CC(O)[C@H]1C(=O)N2C(C(=O)[O-])=C(C[n+]3ccc(CN)cc3)[C@H](C)[C@H]12` (stereo partly drawn) [Table I No. 10] the same measures were 0.05 µg/mL (≈ 0.151 µM), 0.78 µg/mL (≈ 2.35 µM) and 3.13 µg/mL (≈ 9.45 µM).
For the compound `CC(O)[C@H]1C(=O)N2C(C(=O)[O-])=C(C[n+]3cccc(CNC=O)c3)[C@H](C)[C@H]12` (stereo partly drawn) [Table I No. 11], the minimum inhibitory concentration (MIC) in assay [1] is 0.05 µg/mL (≈ 0.139 µM); in assay [2], 0.78 µg/mL (≈ 2.17 µM); in assay [3] it was 3.13 µg/mL (≈ 8.71 µM).
The matching figures for `CCC(=O)c1cc[n+](CC2=C(C(=O)[O-])N3C(=O)[C@H](C(C)O)[C@H]3[C@H]2C)cc1` (stereo partly drawn) [Table I No. 13]: 0.05 µg/mL (≈ 0.14 µM), 0.76 µg/mL (≈ 2.12 µM) and 3.13 µg/mL (≈ 8.73 µM).
The matching figures for `CC(O)[C@H]1C(=O)N2C(C(=O)[O-])=C(C[n+]3cccc(C(N)=O)c3)[C@H](C)[C@H]12` (stereo partly drawn) [Table I No. 14]: 0.025 µg/mL (≈ 0.0724 µM), 0.39 µg/mL (≈ 1.13 µM) and 1.56 µg/mL (≈ 4.52 µM).
The matching figures for `CC(O)[C@H]1C(=O)N2C(C(=O)[O-])=C(C[n+]3ccc(C(N)=O)cc3)[C@H](C)[C@H]12` (stereo partly drawn) [Table I No. 15]: 0.025 µg/mL (≈ 0.0724 µM), 0.39 µg/mL (≈ 1.13 µM) and 1.56 µg/mL (≈ 4.52 µM).
On to `CC(O)[C@H]1C(=O)N2C(C(=O)[O-])=C(C[n+]3cccc(-c4cnco4)c3)[C@H](C)[C@H]12` (stereo partly drawn) [Table I No. 16], for which the minimum inhibitory concentration (MIC) in assay [1] was 0.025 µg/mL (≈ 0.0677 µM); in assay [2], 0.2 µg/mL (≈ 0.541 µM); in assay [3], 1.56 µg/mL (≈ 4.22 µM).
The matching figures for `CC(O)[C@H]1C(=O)N2C(C(=O)[O-])=C(C[n+]3ccc(-c4ncco4)cc3)[C@H](C)[C@H]12` (stereo partly drawn) [Table I No. 17]: 0.025 µg/mL (≈ 0.0677 µM), 0.2 µg/mL (≈ 0.541 µM) and 3.13 µg/mL (≈ 8.47 µM).
Consider `CC(O)[C@H]1C(=O)N2C(C(=O)[O-])=C(C[n+]3ccc(-c4cnco4)cc3)[C@H](C)[C@H]12` (stereo partly drawn) [Table I No. 18], for which the MIC worked out at 0.025 µg/mL (≈ 0.0677 µM) in assay [1], 0.39 µg/mL (≈ 1.06 µM) in assay [2] and 6.25 µg/mL (≈ 16.9 µM) in assay [3].
As to `CC(O)[C@H]1C(=O)N2C(C(=O)[O-])=C(C[n+]3cccc(N)c3)[C@H](C)[C@H]12` (stereo partly drawn) [Table I No. 19], the MIC was 0.0125 µg/mL (≈ 0.0394 µM) in assay [1], 0.2 µg/mL (≈ 0.63 µM) in assay [2] and 1.56 µg/mL (≈ 4.92 µM) in assay [3].
